Measured values reported in ChEMBL document CHEMBL1833931, “Simple synthetic toll-like receptor 2 ligands” (Bioorg Med Chem Lett, 2011).
Active and inactive are the calls of the source. No cut-off for these calls is given here.

Target: Toll-like receptor 2 (Homo sapiens) (UniProt O60603)
Test: Agonist activity at TLR2 expressed in HEK293 cells co-expressing pNF-kappaB-Luc Cis assessed as NF-kappaB activation at 100 nM by luciferase reporter gene assay
Type: functional, cell-based

Sequence of Toll-like receptor 2 (Homo sapiens) (O60603 whole entry): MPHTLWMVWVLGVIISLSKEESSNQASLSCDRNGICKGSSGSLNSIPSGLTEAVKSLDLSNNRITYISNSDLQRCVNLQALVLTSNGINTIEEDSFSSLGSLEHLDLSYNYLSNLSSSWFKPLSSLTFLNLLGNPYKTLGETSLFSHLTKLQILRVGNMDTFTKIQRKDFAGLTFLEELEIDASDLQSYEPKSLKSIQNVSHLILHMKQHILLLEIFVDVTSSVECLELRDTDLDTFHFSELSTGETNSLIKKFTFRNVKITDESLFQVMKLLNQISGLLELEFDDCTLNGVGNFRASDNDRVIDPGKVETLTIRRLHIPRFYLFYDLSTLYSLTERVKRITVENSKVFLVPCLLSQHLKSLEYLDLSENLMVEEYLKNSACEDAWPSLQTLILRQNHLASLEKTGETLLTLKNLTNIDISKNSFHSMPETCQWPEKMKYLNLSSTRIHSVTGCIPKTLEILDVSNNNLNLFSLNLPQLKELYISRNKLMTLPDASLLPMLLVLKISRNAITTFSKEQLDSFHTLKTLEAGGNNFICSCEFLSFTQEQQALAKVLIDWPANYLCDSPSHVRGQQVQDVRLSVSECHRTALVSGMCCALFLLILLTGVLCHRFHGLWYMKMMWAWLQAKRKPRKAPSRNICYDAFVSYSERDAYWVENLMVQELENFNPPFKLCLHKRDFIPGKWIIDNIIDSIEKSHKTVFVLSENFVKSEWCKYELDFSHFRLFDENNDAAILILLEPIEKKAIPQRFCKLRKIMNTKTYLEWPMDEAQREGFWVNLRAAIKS

Row | SMILES | Activity
1 | CCCCCCCCCCCCCCCC(=O)NC(CO)CCCCCCCCCCCCCC (configuration not stated) | Active
2 | CCCCCCCCCCCCCCCC(=O)NC(CCCCCCCCCCCCCC)C(=O)O (configuration not stated) | Active
